Results: patent publication US9073853B2, “Cycloalkane carboxylic acid derivatives as CXCR3 receptor antagonists” (Sanofi, priority 2011, dated 2015)
pIC50: −log10 of the molar value. Where a name gives a salt, the structure may show the parent alone.

Biological target: human CXCR3-A receptor (Homo sapiens (Human), UniProt P49682)
Experiment: 125I-CXCL10 competition radioligand binding assay
Details: displacement of 125I-CXCL10 from membranes of CHO cells expressing human recombinant CXCR3-A
Method: IC50 values were determined for the test compounds and used to explore the structure-activity relationships (SAR). […] This cell line was registered in Sanofi-Aventis cell line bank. […] Cell suspension was diluted with PBS and cells were collected with centrifugation at 230 g for 10 minutes at 10° C. with a Juan centrifuge. […] The supernatant was carefully collected and centrifuged at 100,000×g for 60 min at 4° with a Beckman Avanti J30 centrifuge. […] Protein concentration was determined with Bio-Rad protein assay (Cat No 500-0006). Membrane aliquots were stored at -80° C. […] The composition of the binding assay buffer was determined in a course of detailed optimization procedure. […] Binding reaction was initiated by adding of membranes (10-20 μg proteins, approximately 5×10^5 cell equivalents) to the reaction mixture. After 60 minutes of incubation at 25° C. the reaction was terminated by rapid filtration over GF/B glass fiber filters that were pre-soaked with 0.5% polyethyleneimine (Fluka Analytical, P3143) for 1 hour, using a Skatron cell harvester device. Filters then were washed with 8 ml of ice-cold wash buffer (modified binding buffer in which BSA was omitted and the concentration of NaCl was adjusted to 500 mM concentration). The radioactivity retained on the filters was measured by a Wizard 1470 Automatic Gamma counter. Test compounds were dissolved prior to the binding assay at a concentration of 10 mM in DMSO. Stock solutions were stored at -20° C. for not longer than 3 months. […] Before adding these solutions of test compound to the binding reaction mixture, an intermediate dilution procedure was applied, in which 30 μL of each solution sample was transferred into a dilution tube containing 970 μL of binding assay buffer. […] The IC50 values and Hill slopes for competition binding data were obtained using nonlinear four-parametric curve fitting method.

human CXCR3-A receptor, sequence (P49682 whole entry): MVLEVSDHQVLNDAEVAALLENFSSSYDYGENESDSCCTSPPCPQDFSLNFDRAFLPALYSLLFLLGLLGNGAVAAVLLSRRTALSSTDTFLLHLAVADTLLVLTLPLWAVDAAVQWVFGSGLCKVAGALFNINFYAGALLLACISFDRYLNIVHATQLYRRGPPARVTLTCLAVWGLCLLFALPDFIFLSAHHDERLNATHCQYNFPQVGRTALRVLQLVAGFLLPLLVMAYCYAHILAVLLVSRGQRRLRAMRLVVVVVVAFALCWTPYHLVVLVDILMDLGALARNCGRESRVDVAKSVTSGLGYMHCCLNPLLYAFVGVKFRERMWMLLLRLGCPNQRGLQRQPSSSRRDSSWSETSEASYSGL

| Structure (SMILES) | pIC50 |
| --- | --- |
| COc1cc(CN(C[C@H]2CC[C@H](C(=O)O)CC2)C2CCc3cc(Cl)ccc32)ccc1CCCN1C(=O)CCC1=O (stereo in doubt) [Example 46, trans-4-[(((S)-5-Chloro-indan-1-yl)-{4-[3-(2,5-dioxo-pyrrolidin-1-yl)-propyl]-3-methoxy-benzyl}-amino)-methyl]-cyclohexanecarboxylic acid] | 6.00 |
| COc1cc(CN(C[C@H]2CC[C@H](C(=O)O)CC2)[C@H](C)c2ccc(Cl)cc2)ccc1OCCN1C(=O)CCC1=O [Example 6, trans-4-[([(R)-1-(4-Chloro-phenyl)-ethyl]-{4-[2-(2,5-dioxo-pyrrolidin-1-yl)-ethoxy]-3-methoxy-benzyl}-amino)-methyl]-cyclohexanecarboxylic acid] | 7.70 |
| Cc1cc(CN(C[C@H]2CC[C@H](C(=O)O)CC2)[C@H](C)c2ccc(Cl)cc2)ccc1OCCN1C(=O)CCC1=O [Example 9, trans-4-[([(R)-1-(4-Chloro-phenyl)-ethyl]-{4-[2-(2,5-dioxo-pyrrolidin-1-yl)-ethoxy]-3-methyl-benzyl}-amino)-methyl]-cyclohexanecarboxylic acid] | 7.49 |
| COc1cc(CN(C[C@H]2CC[C@H](C(=O)O)CC2)C2CCc3cc(Cl)ccc32)ccc1OCCN1C(=O)CCC1=O (stereo partly drawn) [Example 10, trans-4-[((5-Chloro-indan-1-yl)-{4-[2-(2,5-dioxo-pyrrolidin-1-yl)-ethoxy]-3-methoxy-benzyl}-amino)-methyl]-cyclohexane-carboxylic acid] | 7.19 |
| COc1cc(CN(C[C@H]2CC[C@H](C(=O)O)CC2)C(C)c2ccc3c(c2)CCO3)ccc1OCCN1C(=O)CSC1=O (stereo partly drawn) [Example 15, trans-4-[([1-(2,3-Dihydro-benzofuran-5-yl)-ethyl]-{4-[2-(2,4-dioxo-thiazolidin-3-yl)-ethoxy]-3-methoxy-benzyl}-amino)-methyl]-cyclohexanecarboxylic acid] | 7.43 |
| CC(c1ccc2c(c1)CCO2)N(Cc1ccc(OCCN2C(=O)CCC2=O)c(Cl)c1)C[C@H]1CC[C@H](C(=O)O)CC1 (stereo partly drawn) [Example 16, trans-4-({{3-Chloro-4-[2-(2,5-dioxo-pyrrolidin-1-yl)-ethoxy]-benzyl}-[1-(2,3-dihydro-benzofuran-5-yl)-ethyl]-amino}-methyl)-cyclohexanecarboxylic acid] | 7.46 |
| COc1cc(CN(C[C@H]2CC[C@H](C(=O)O)CC2)C(C)c2ccc3c(c2)CCO3)ccc1OCCN1C(=O)COC1=O (stereo partly drawn) [Example 19, trans-4-[([1-(2,3-Dihydro-benzofuran-5-yl)-ethyl]-{4-[2-(2,4-dioxo-oxazolidin-3-yl)-ethoxy]-3-methoxy-benzyl}-amino)-methyl]-cyclohexanecarboxylic acid] | 7.26 |
| O=C1CCC(=O)N1CCOc1ccc(CN(C[C@H]2CC[C@H](C(=O)O)CC2)C2CCc3cc(Cl)ccc32)cc1Cl (stereo partly drawn) [Example 21, trans-4-{[{3-Chloro-4-[2-(2,5-dioxo-pyrrolidin-1-yl)-ethoxy]-benzyl}-(5-chloro-indan-1-yl)-amino]-methyl}-cyclohexanecarboxylic acid] | 6.20 |
| CC(c1ccc2c(c1)CCO2)N(Cc1ccc(OCCN2C(=O)CN(C)C2=O)c(Cl)c1)C[C@H]1CC[C@H](C(=O)O)CC1 (stereo partly drawn) [Example 22, trans-4-({{3-Chloro-4-[2-(3-methyl-2,5-dioxo-imidazolidin-1-yl)-ethoxy]-benzyl}-[1-(2,3-dihydro-benzofuran-5-yl)-ethyl]-amino}-methyl)-cyclohexanecarboxylic acid] | 6.95 |
| COc1cc(CN(C[C@H]2CC[C@H](C(=O)O)CC2)C(C)c2ccc(Cl)c(C)c2)ccc1OCCN1C(=O)CCC1=O (stereo partly drawn) [Example 25, trans-4-[([1-(4-Chloro-3-methyl-phenyl)-ethyl]-{4-[2-(2,5-dioxo-pyrrolidin-1-yl)-ethoxy]-3-methoxy-benzyl}-amino)-methyl]-cyclohexanecarboxylic acid] | 7.60 |

Other lines, results leading:

| pIC50 | Structure (SMILES) |
| --- | --- |
| 6.75 | CCOC(=O)[C@H]1CC[C@H](CN(Cc2ccc(OCCN3C(=O)CCC3=O)c(OC)c2)C(C)c2ccc3c(c2)CCO3)CC1 (relative stereo) [Example 1.1, trans-4-[([1-(2,3-Dihydro-benzofuran-5-yl)-ethyl]-{4-[2-(2,5-dioxo-pyrrolidin-1-yl)-ethoxy]-3-methoxy-benzyl}-amino)-methyl]-cyclohexanecarboxylic acid ethyl ester] |
| 6.80 | COc1cc(CN(C[C@H]2CC[C@H](C(=O)O)CC2)C2CCc3cc(Cl)ccc32)ccc1CCCN1C(=O)CCC1=O (stereo in doubt) [Example 45, trans-4-[(((R)-5-Chloro-indan-1-yl)-{4-[3-(2,5-dioxo-pyrrolidin-1-yl)-propyl]-3-methoxy-benzyl}-amino)-methyl]-cyclohexanecarboxylic acid] |
| 7.72 | COc1cc(CN(C[C@H]2CC[C@H](C(=O)O)CC2)[C@@H](C)c2ccc(Cl)cc2)ccc1OCCN1C(=O)CCC1=O [Example 5, trans-4-[([(S)-1-(4-Chloro-phenyl)-ethyl]-{4-[2-(2,5-dioxo-pyrrolidin-1-yl)-ethoxy]-3-methoxy-benzyl}-amino)-methyl]-cyclohexanecarboxylic acid] |
| 7.42 | Cc1cc(CN(C[C@H]2CC[C@H](C(=O)O)CC2)[C@@H](C)c2ccc(Cl)cc2)ccc1OCCN1C(=O)CCC1=O [Example 7, trans-4-[([(S)-1-(4-Chloro-phenyl)-ethyl]-{4-[2-(2,5-dioxo-pyrrolidin-1-yl)-ethoxy]-3-methyl-benzyl}-amino)-methyl]-cyclohexanecarboxylic acid] |
| 5.42 | Cc1cc(CN(C[C@H]2CC[C@@H](C(=O)O)CC2)[C@@H](C)c2ccc(Cl)cc2)ccc1OCCN1C(=O)CCC1=O [Example 8, cis-4-[([(S)-1-(4-Chloro-phenyl)-ethyl]-{4-[2-(2,5-dioxo-pyrrolidin-1-yl)-ethoxy]-3-methyl-benzyl}-amino)-methyl]-cyclohexanecarboxylic acid] |
| 6.70 | COc1cc(CN(C[C@H]2CC[C@H](C(=O)O)CC2)[C@@H]2CCc3cc(Cl)ccc32)ccc1OCCN1C(=O)CCC1=O [Example 11, trans-4-[(((R)-5-Chloro-indan-1-yl)-{4-[2-(2,5-dioxo-pyrrolidin-1-yl)-ethoxy]-3-methoxy-benzyl}-amino)-methyl]cyclohexanecarboxylic acid] |
| 7.89 | COc1cc(CN(C[C@H]2CC[C@H](C(=O)O)CC2)[C@H]2CCc3cc(Cl)ccc32)ccc1OCCN1C(=O)CCC1=O [Example 12, trans-4-[(((S)-5-Chloro-indan-1-yl)-{4-[2-(2,5-dioxo-pyrrolidin-1-yl)-ethoxy]-3-methoxy-benzyl}-amino)-methyl]-cyclohexanecarboxylic acid] |
| 5.78 | COc1cc(CN(C[C@H]2CC[C@@H](C(=O)O)CC2)C2CCc3cc(Cl)ccc32)ccc1OCCN1C(=O)CCC1=O (stereo partly drawn) [Example 13, cis-4-[((5-Chloro-indan-1-yl)-{4-[2-(2,5-dioxo-pyrrolidin-1-yl)-ethoxy]-3-methoxy-benzyl}-amino)-methyl]-cyclohexane-carboxylic acid] |
| 7.60 | COc1cc(CN(C[C@H]2CC[C@H](C(=O)O)CC2)[C@H]2CCc3c2ccc(Cl)c3Cl)ccc1OCCN1C(=O)CCC1=O [Example 14, trans-4-[(((S)-4,5-Dichloro-indan-1-yl)-{4-[2-(2,5-dioxo-pyrrolidin-1-yl)-ethoxy]-3-methoxy-benzyl}-amino)-methyl]-cyclohexanecarboxylic acid hydrochloride] |
| 7.36 | Cc1cc(CN(C[C@H]2CC[C@H](C(=O)O)CC2)C(C)c2ccc3c(c2)CCO3)ccc1OCCN1C(=O)CCC1=O (stereo partly drawn) [Example 17, trans-4-[([1-(2,3-Dihydro-benzofuran-5-yl)-ethyl]-{4-[2-(2,5-dioxo-pyrrolidin-1-yl)-ethoxy]-3-methyl-benzyl}-amino)-methyl]-cyclohexanecarboxylic acid] |
| 7.19 | CCC(c1ccc2c(c1)CCO2)N(Cc1ccc(OCCN2C(=O)CCC2=O)c(OC)c1)C[C@H]1CC[C@H](C(=O)O)CC1 (stereo partly drawn) [Example 18, trans-4-[([1-(2,3-Dihydro-benzofuran-5-yl)-propyl]-{4-[2-(2,5-dioxo-pyrrolidin-1-yl)-ethoxy]-3-methoxy-benzyl}-amino)-methyl]-cyclohexanecarboxylic acid] |
| 6.94 | C[C@@H](c1ccc(Cl)cc1)N(Cc1ccc(OCCN2C(=O)CN(C)C2=O)c(Cl)c1)C[C@H]1CC[C@H](C(=O)O)CC1 [Example 23, trans-4-({{3-Chloro-4-[2-(3-methyl-2,5-dioxo-imidazolidin-1-yl)-ethoxy]-benzyl}-[(S)-1-(4-chloro-phenyl)-ethyl]-amino}-methyl)-cyclohexanecarboxylic acid] |
| 7.24 | COc1cc(CN(C[C@H]2CC[C@H](C(=O)O)CC2)C2CCc3cc(Cl)ccc32)ccc1OCCN1C(=O)CSC1=O (stereo partly drawn) [Example 24, trans-4-[((5-Chloro-indan-1-yl)-{4-[2-(2,4-dioxo-thiazolidin-3-yl)-ethoxy]-3-methoxy-benzyl}-amino)-methyl]-cyclohexanecarboxylic acid] |
